The source of these data is US20220264883A1, “IMIDAZOTHIAZOLE COMPOUNDS AND METHODS FOR TREATING PLANT NEMATODE INFECTIONS” (The Governing Council of the University of Toronto, priority 2019, published 2022).

What all share (assay type): in vivo
The test system of one data set is M. chitwoodi J2 larvae. As to the kind of experiment: Meloidogyne chitwoodi in vitro assays (J2 movement). Particulars: 45 μM, 2 days, relative to DMSO control. The procedure: M. incognita (Kofoid & White) Chitwood Race 1 (originally isolated in Maryland) was used for all experiments, and was maintained on pepper (Capsicum annuum L.) cv. PA-136 in a greenhouse as previously described^64. Infective J2 juveniles were collected as described in ref.65. The microwell dose-response experiments were carried out similarly to previously described protocols^64, 66. In brief, 100 J2s, in 10 μL of deionized water, were added to the wells of 96-well polystyrene plates, after which 190 μL of deionized water containing dissolved chemical, or DMSO alone, was added to each well. The chemicals were tested at 45 μM, and the final concentration of DMSO in each well was 0.5% (v/v). The wells were covered with a plastic adhesive strip, and the lids of the plates were sealed with parafilm. The plates were incubated at 25° C. The mobile fraction of worms was quantified by counting the number of mobile and immobile worms after 2 days of incubation, and then dividing the number of mobile worms by the total number of worms in the well. Three technical replicates were performed for each treatment, and an average value for the mobile fraction of worms was calculated across the three replicates. The percent effectiveness at inhibiting nematode movement was calculated by dividing the average value for the chemical treatment by the average value for the DMSO control, then subtracting this value from 1, and then multiplying by 100.
M. chitwoodi race 1 (the strain commonly found in the pacific northwest of the United States) was used for all experiments, and was maintained on tomato plants (Solanum lycopersicum ‘Rutgers’) as previously described^73. The M. chitwoodi in vitro assays were performed identically to the M. incognita in vitro assays (see above).

The test system of another data set is Arabidopsis thaliana. Nature of the data set: Arabidopsis thaliana greening experiments. Particulars: 5, 15 and 45 micromolar, greening after 4 days. The protocol: Greening experiments were performed with Arabidopsis thaliana seeds of wild type Col-0; seeds were surface sterilized in bleach and plated onto 0.5×MS, 0.5% sucrose agar medium supplemented with compounds of interest at 5, 15 and 45 μM concentrations. After 4 d of stratification at 4° C., plates were transferred to a growth chamber (16 h/8 h, 150 μE/m^2) and greening recorded after 4 days. Pictures were recorded by camera (SONY a7s) with FE1.8/55 lens (FE 55 mm F1.8 ZA; SEL55F18Z). Experiments were performed in triplicate for each treatment.

Data set [1] has as its system C. elegans anthelmintic/nematicide-resistant mutants. Nature of the data set: whole plant or invertebrate. The conditions noted are these: Caenorhabditis elegans. The procedure: Forty microliters of an HB101 bacterial suspension in liquid NGM (see above) was added to each well of a 96-well flat-bottom culture plate, after which approximately 25 synchronized L1 worms, in 10 μl of M9 buffer (see ref. 59 for the recipe), were added to each well. The synchronized L1 worms were obtained from an embryo preparation performed the previous day (see ref. 59 for the protocol). For the L1 assays, 0.5 μl of chemical solution (or DMSO alone) was immediately added to the wells using a multichannel pipette, the final DMSO concentration is 1% (v/v). The worms were incubated for 3 days at 20° C. and the number of viable animals was counted. […] Although the counts were performed after 3 days of incubation in the chemical, it was noted that the L1s were dead within 24 hours of the addition of the chemicals. For the L2/L3 assays, the worms were incubated in the absence of chemical for 1 day at 20° C. until they reached the L2/L3 stage, at which point chemical was added as described above. The worms were then allowed to incubate for 2 days at 20° C. and the number of viable animals was counted as described for the L1 assay. For the L4 assays, the worms were incubated for 2 days at 20° C. before the addition of chemicals. The L4-stage worms were then incubated in chemical for an additional day before quantifying the number of viable animals. The adult assays were performed the same way as the L4 assays, however HT115 E. coli carrying the empty dsRNA expressing vector L4440 was used in place of HB101 and the worms were cultured at 25° C. as opposed to 20° C. for the entirety of the experiment. The HT115 suspension was made by concentrating a bacterial culture, with an OD600 of ˜ 0.8, five-fold with liquid NGM containing 1 mM IPTG and 100 μg/ml carbenicillin. The HT115 cells were induced with 1 mM IPTG for one hour before concentrating with NGM.
The dose-response experiments for the anthelmintic/nematicide-resistant mutants were carried out as described for the L1 dose-response assays. One notable exception is the aldicarb-resistant strain PR1152. This strain grows slowly, and so the viability counts were performed 5 days after addition of the chemical, as opposed to 3 days, to allow the DMSO control worms to reach adulthood.
At least three biological replicates were performed for each dose-response assay. For each biological replicate, two technical replicates were performed and the numbers of viable animals for each technical replicate were combined (i.e. ˜50 worms assayed per concentration). The number of viable worms at each concentration was divided by the corresponding DMSO control value to give the “relative viability” for each concentration. The “relative viability” values were then averaged across the biological replicates. LC50 values were calculated using Graphpad Prism. The concentration values were log-transformed and a four-parameter logistic curve was fitted to the dose-response data by non-linear regression, from which the LC50 values were extracted.

Data set [2] deals with Haemonchus contortus eggs. Nature of the data set: Haemonchus contortus egg hatching assay. Particulars: for Hatch Rate: 60 μM, 48 hours, ± standard deviation; for reduction of egg hatching relative to the untreated mock control: 60 micromolar, 48-hour treatment. The procedure: Fresh sheep faeces containing eggs of the MHco3(ISE) strain of H. contortus was supplied by Dr. Doug Colwell and Dawn Gray (Lethbridge Research Station, Agriculture and Agri-Food Canada). Experimental infections used to generate this material were carried out using established methods^72, and were approved by the Lethbridge AAFC Animal Care committee and conducted under animal use license ACC1407. Sheep faeces containing H. contortus eggs were stored at 20° C. for no longer than 48 h before harvesting eggs for use. Eggs were isolated from faeces using a standard saturated salt flotation method^61 immediately before each egg hatch assay. Approximately 100 eggs suspended in 100 μl of water were added to each well of a 96-well plate, and the exemplary compounds of the application were tested at 60 μM, 0.6% DMSO (v/v). Egg hatch rates were determined 48 hours after the initial set-up of the assay by the addition of iodine tincture to stop development. Example 13: Arabidopsis thaliana greening experiments

The mark [3] stands for this setting: 120 h, read-out: LC50 in strain PR1152.
[4] abbreviates: read-out: LC50 in strain CB1072.
Where [5] appears, read: read-out: LC50 in strain CB3474.
[6] abbreviates: read-out: LC50 in strain CF1038.
[7] abbreviates: read-out: LC50 in strain DA1316.
[8] abbreviates: read-out: LC50 in strain NM1968.
[9] abbreviates: read-out: LC50 in strain RP2674.

Where two headings read alike, the source gives them in different places.

For the molecule `Cc1csc2nc(-c3ccccc3)cn12` [Compound Ie], the “% effectiveness at reducing M. chitwoodi movement” value in the data set on M. chitwoodi J2 larvae came out at 24.3%.
The LC50 is the concentration that kills 50% of the test population. With `Clc1ccc(-c2cn3ccsc3n2)cc1` [Ia], the “effect on health and greening of Arabidopsis thaliana plants (phytotoxicity)” value in the data set with Arabidopsis thaliana is “some phytotoxicity and yellowing at the highest concentration”. Moreover, the LC50 in data set [1] (setting [3]) is 3.7 µM; in data set [1] (setting [4]), 5.7 µM; in data set [1] (setting [5]), 6.4 µM; in data set [1] (setting [6]), 5.7 µM; in data set [1] (setting [7]), 4.6 µM; in data set [1] (setting [8]), 4.4 µM. Further, the LC50 in data set [1] (setting [9]) is 4.9 µM; in data set [1] (read-out: LC50 in strain VC731), 6.4 µM. In addition, the “Hatch Rate” value in data set [2] amounted to 1.0 ± 1.7%. Moreover, the “reduction of egg hatching relative to the untreated mock control” value in data set [2] came out at 99%.
As to `Fc1ccc(-c2cn3ccsc3n2)cc1` [Ib], the “% effectiveness at reducing M. chitwoodi movement” value in the data set on M. chitwoodi J2 larvae is 37.5%. Also, the LC50 in data set [1] (setting [3]) was 14.9 µM; in data set [1] (setting [4]), 24.3 µM; in data set [1] (setting [5]), 17 µM; in data set [1] (setting [6]) it was 16 µM; in data set [1] (setting [7]) it was 14.5 µM; in data set [1] (setting [8]), 16 µM. In addition, the LC50 was 27.5 µM in data set [1] (read-out: LC50 in strain RB2119), 16.4 µM in data set [1] (setting [9]) and 28.5 µM in data set [1] (read-out: LC50 in strain VC731). In addition, the “Hatch Rate” value in data set [2] came to 0.0 ± 0.0%. Further, the “reduction of egg hatching relative to the untreated mock control” value in data set [2] was “completely inhibited egg hatching”.
